# In publication PMC5218480 (PLoS ONE, 2017):
# System: MV-4-11 cells
# Test: Gene expression microarray analysis (Affymetrix PrimeView) and GSEA
# Assay type: cell-based, human
# Set-up: RFU PODN (11730768_x_at) / Fold change /veh PODN (11730768_x_at) / RFU LINC00158 (11744669_a_at) / Fold change /veh LINC00158 (11744669_a_at) / RFU DUSP10 (11751237_a_at) / Fold change /veh DUSP10 (11751237_a_at) / RFU ID3 (11757404_x_at) / Fold change /veh ID3 (11757404_x_at) / RFU PLEKHG5 (11737974_s_at) / Fold change /veh PLEKHG5 (11737974_s_at) / RFU LRRC4B (11730491_at) / Fold change /veh LRRC4B (11730491_at) / RFU GIMAP4 (11747438_a_at) / Fold change /veh GIMAP4 (11747438_a_at) / RFU KRT8 (11758183_x_at) / Fold change /veh KRT8 (11758183_x_at) / RFU CNN1 (11734310_a_at) / Fold change /veh CNN1 (11734310_a_at) / RFU VPS37D (11726825_at) / Fold change /veh VPS37D (11726825_at) / RFU C10orf10 (11716522_x_at) / Fold change /veh C10orf10 (11716522_x_at) / RFU KIR2DL2 /// KIR2DL4 /// KIR2DL5A /// KIR2DL5B /// KIR2DS1 /// KIR2DS2 /// KIR2DS3 /// KIR2DS4 /// KIR3DL3 /// KIR3DL3 /// KIR3DS1 (11738374_at) / Fold change /veh KIR2DL2 /// KIR2DL4 /// KIR2DL5A /// KIR2DL5B /// KIR2DS1 /// KIR2DS2 /// KIR2DS3 /// KIR2DS4 /// KIR3DL3 /// KIR3DL3 /// KIR3DS1 (11738374_at) / RFU C1QL1 (11718748_at) / Fold change /veh C1QL1 (11718748_at) / RFU TMPRSS4 (11747572_a_at) / Fold change /veh TMPRSS4 (11747572_a_at) / RFU HAMP (11756126_x_at) / Fold change /veh HAMP (11756126_x_at) / RFU RNFT2 (11725882_a_at) / Fold change /veh RNFT2 (11725882_a_at) / RFU NR4A2 (11747474_a_at) / Fold change /veh NR4A2 (11747474_a_at) / RFU ABCC12 (11746883_a_at) / Fold change /veh ABCC12 (11746883_a_at) / RFU TMEM136 (11760407_x_at) / Fold change /veh TMEM136 (11760407_x_at) / RFU CLDN22 /// WWC2 (11732394_at) / Fold change /veh CLDN22 /// WWC2 (11732394_at) / RFU HLA-DPB1 (11760878_x_at) / Fold change /veh HLA-DPB1 (11760878_x_at) / RFU SPINT1 (11716480_a_at) / Fold change /veh SPINT1 (11716480_a_at) / RFU GAP43 (11754022_s_at) / Fold change /veh GAP43 (11754022_s_at) / RFU A4GNT (11735810_at) / Fold change /veh A4GNT (11735810_at) / RFU PRB3 (11715151_x_at) / Fold change /veh PRB3 (11715151_x_at) / RFU TUBB4B (11761932_at) / Fold change /veh TUBB4B (11761932_at) / RFU CAPN14 (11732068_a_at) / Fold change /veh CAPN14 (11732068_a_at) / RFU TMCC2 (11721928_a_at) / Fold change /veh TMCC2 (11721928_a_at) / RFU IRGQ (11745062_a_at) / Fold change /veh IRGQ (11745062_a_at) / RFU FAM174B (11720279_a_at) / Fold change /veh FAM174B (11720279_a_at) / RFU TMPRSS4 (11748680_a_at) / Fold change /veh TMPRSS4 (11748680_a_at) / RFU FAM212B (11763350_a_at) / Fold change /veh FAM212B (11763350_a_at) / RFU PLEKHG5 (11743358_a_at) / Fold change /veh PLEKHG5 (11743358_a_at) / RFU ZSCAN30 (11745921_a_at) / Fold change /veh ZSCAN30 (11745921_a_at) / RFU CMKLR1 (11741424_a_at) / Fold change /veh CMKLR1 (11741424_a_at) / RFU LOC101060620 /// MAPK8IP1 (11723275_at) / Fold change /veh LOC101060620 /// MAPK8IP1 (11723275_at) / RFU SPTSSB (11747773_x_at) / Fold change /veh SPTSSB (11747773_x_at) / RFU PRSS12 (11739890_at) / Fold change /veh PRSS12 (11739890_at) / RFU BIN1 (11741810_x_at) / Fold change /veh BIN1 (11741810_x_at) / RFU WNT11 (11732464_a_at) / Fold change /veh WNT11 (11732464_a_at) / RFU C10orf10 (11716521_a_at) / Fold change /veh C10orf10 (11716521_a_at) / RFU C5orf56 (11738089_at) / Fold change /veh C5orf56 (11738089_at) / RFU CYB561 (11721691_x_at) / Fold change /veh CYB561 (11721691_x_at) / RFU ANKRD19P (11752326_a_at) / Fold change /veh ANKRD19P (11752326_a_at) / RFU OR2T12 /// OR2T33 /// OR2T8 (11738714_s_at) / Fold change /veh OR2T12 /// OR2T33 /// OR2T8 (11738714_s_at) / RFU VCAN (11748164_a_at) / Fold change /veh VCAN (11748164_a_at) / RFU JSRP1 (11732532_at) / Fold change /veh JSRP1 (11732532_at) / RFU KRTAP10-11 (11738290_x_at) / Fold change /veh KRTAP10-11 (11738290_x_at) / RFU MYO3A (11730013_a_at) / Fold change /veh MYO3A (11730013_a_at) / RFU EBF3 (11725865_a_at) / Fold change /veh EBF3 (11725865_a_at) / RFU CAMK2N1 (11719241_x_at) / Fold change /veh CAMK2N1 (11719241_x_at) / RFU C5orf56 (11738088_a_at) / Fold change /veh C5orf56 (11738088_a_at) / RFU OLFML3 (11715873_a_at) / Fold change /veh OLFML3 (11715873_a_at) / RFU LOC100653217 /// NTM (11731650_a_at) / Fold change /veh LOC100653217 /// NTM (11731650_a_at) / RFU MAPK11 (11762145_a_at) / Fold change /veh MAPK11 (11762145_a_at) / RFU FIZ1 (11724087_x_at) / Fold change /veh FIZ1 (11724087_x_at) / RFU OASL (11726364_x_at) / Fold change /veh OASL (11726364_x_at) / RFU SOX15 (11748057_x_at) / Fold change /veh SOX15 (11748057_x_at) / RFU CD79A (11719716_a_at) / Fold change /veh CD79A (11719716_a_at) / RFU HIST1H1D (11736915_at) / Fold change /veh HIST1H1D (11736915_at) / RFU CASKIN2 (11723855_a_at) / Fold change /veh CASKIN2 (11723855_a_at) / RFU LOC730098 (11760151_x_at) / Fold change /veh LOC730098 (11760151_x_at) / RFU OR4N2 (11742367_at) / Fold change /veh OR4N2 (11742367_at) / RFU PRRT2 (11749266_a_at) / Fold change /veh PRRT2 (11749266_a_at) / RFU SNX32 (11753110_a_at) / Fold change /veh SNX32 (11753110_a_at) / RFU CDHR5 (11726645_a_at) / Fold change /veh CDHR5 (11726645_a_at) / RFU RCAN1 (11760418_a_at) / Fold change /veh RCAN1 (11760418_a_at) / RFU FAM167A (11723789_a_at) / Fold change /veh FAM167A (11723789_a_at) / RFU FAM26E (11764081_at) / Fold change /veh FAM26E (11764081_at) / RFU ISYNA1 (11749810_s_at) / Fold change /veh ISYNA1 (11749810_s_at) / RFU ACY1 (11761880_at) / Fold change /veh ACY1 (11761880_at) / RFU 11764098_at / Fold change /veh 11764098_at / RFU SAMD14 (11745864_x_at) / Fold change /veh SAMD14 (11745864_x_at) / RFU NPB (11741838_a_at) / Fold change /veh NPB (11741838_a_at) / RFU TMPRSS6 (11731388_a_at) / Fold change /veh TMPRSS6 (11731388_a_at) / RFU KRTAP10-2 (11738614_at) / Fold change /veh KRTAP10-2 (11738614_at) / RFU ARHGAP8 /// PRR5-ARHGAP8 (11727945_x_at) / Fold change /veh ARHGAP8 /// PRR5-ARHGAP8 (11727945_x_at) / RFU KRTAP5-7 /// NADSYN1 (11734609_at) / Fold change /veh KRTAP5-7 /// NADSYN1 (11734609_at) / RFU RASL12 (11751679_a_at) / Fold change /veh RASL12 (11751679_a_at) / RFU CDKN2B (11736163_a_at) / Fold change /veh CDKN2B (11736163_a_at) / RFU PRF1 (11729649_at) / Fold change /veh PRF1 (11729649_at) / RFU, ZNF638 /// ZNF638-IT1 / Fold change vs veh, ZNF638 /// ZNF638-IT1 / RFU, PANK3 / Fold change vs veh, PANK3 / RFU, SH3YL1 / Fold change vs veh, SH3YL1 / RFU, ZEB2 / Fold change vs veh, ZEB2 / RFU, NRIP1 / Fold change vs veh, NRIP1 / RFU, PTTG1IP / Fold change vs veh, PTTG1IP / RFU, CAPN2 / Fold change vs veh, CAPN2 / RFU, MED14 / Fold change vs veh, MED14 / RFU, SNORA58 / Fold change vs veh, SNORA58 / RFU, C1orf63 / Fold change vs veh, C1orf63 / RFU, LRRFIP1 / Fold change vs veh, LRRFIP1 / RFU, NDUFAF7 / Fold change vs veh, NDUFAF7 / RFU, SLC12A2 / Fold change vs veh, SLC12A2 / RFU, IBTK / Fold change vs veh, IBTK / RFU, ESF1 / Fold change vs veh, ESF1 / Fold change vs veh, TMEM50B / RFU, TAOK1 / Fold change vs veh, TAOK1 / RFU, ACBD3 / Fold change vs veh, ACBD3 / RFU, TMA16 / Fold change vs veh, TMA16 / RFU, RWDD3 / Fold change vs veh, RWDD3 / RFU, BCAT1 / Fold change vs veh, BCAT1 / RFU, EDEM3 / Fold change vs veh, EDEM3 / RFU, TMEM33 / Fold change vs veh, TMEM33 / RFU, WDR75 / Fold change vs veh, WDR75 / RFU, AHCTF1 / Fold change vs veh, AHCTF1 / RFU, TFRC / Fold change vs veh, TFRC / RFU, ZDHHC17 / Fold change vs veh, ZDHHC17 / RFU, NOM1 / Fold change vs veh, NOM1 / RFU, ARL8B / Fold change vs veh, ARL8B / RFU, ZBTB11 / Fold change vs veh, ZBTB11 / RFU, TAMM41 / Fold change vs veh, TAMM41 / RFU, KIAA1704 /// LOC100996395 / Fold change vs veh, KIAA1704 /// LOC100996395 / RFU, ING1 / Fold change vs veh, ING1 / RFU, TRMT61B / Fold change vs veh, TRMT61B / RFU, FUBP3 / Fold change vs veh, FUBP3 / RFU, TP53 / Fold change vs veh, TP53 / RFU, TNKS2 / Fold change vs veh, TNKS2 / RFU, ZFP14 / Fold change vs veh, ZFP14 / RFU, ACTR2 / Fold change vs veh, ACTR2 / RFU, PPP3R1 / Fold change vs veh, PPP3R1 / RFU, PIK3R1 / Fold change vs veh, PIK3R1 / RFU, HNRNPA1 / Fold change vs veh, HNRNPA1 / RFU, RNF170 / Fold change vs veh, RNF170 / RFU, ZNF28 / Fold change vs veh, ZNF28 / RFU, RNGTT / Fold change vs veh, RNGTT / RFU, OGT / Fold change vs veh, OGT / RFU, BRD1 / Fold change vs veh, BRD1 / RFU, MARS / Fold change vs veh, MARS / RFU, ZNF655 / Fold change vs veh, ZNF655 / RFU, FAHD1 / Fold change vs veh, FAHD1 / RFU, BDP1 / Fold change vs veh, BDP1 / RFU, LRRCC1 / Fold change vs veh, LRRCC1 / RFU, ARID1A / Fold change vs veh, ARID1A / RFU, ZNF146 / Fold change vs veh, ZNF146 / RFU, ZNF330 / Fold change vs veh, ZNF330 / RFU, GPN3 / Fold change vs veh, GPN3 / RFU, C9orf123 / Fold change vs veh, C9orf123 / RFU, N4BP2L2 / Fold change vs veh, N4BP2L2 / RFU, ARFIP1 / Fold change vs veh, ARFIP1 / RFU, FAM179B / Fold change vs veh, FAM179B / RFU, BCL10 / Fold change vs veh, BCL10 / RFU, UHRF1BP1L / Fold change vs veh, UHRF1BP1L / RFU, BET1 / Fold change vs veh, BET1 / RFU, CNOT2 / Fold change vs veh, CNOT2 / RFU, ZNF268 / Fold change vs veh, ZNF268 / Fold change vs veh, ZNF507 / RFU, DGCR2 / Fold change vs veh, DGCR2 / RFU, WDSUB1 / Fold change vs veh, WDSUB1 / Fold change vs veh, HSP90B1 /// MIR3652 / RFU, ADSS / Fold change vs veh, ADSS / RFU, GK / Fold change vs veh, GK / RFU, ZNF148 / Fold change vs veh, ZNF148 / RFU, TAF9 / Fold change vs veh, TAF9 / RFU, SLC1A5 / Fold change vs veh, SLC1A5 / RFU, SLMO2 / Fold change vs veh, SLMO2 / RFU, ABCC4 / Fold change vs veh, ABCC4 / RFU, LOC101060439 /// RAP1B / Fold change vs veh, LOC101060439 /// RAP1B / RFU, RFX7 / Fold change vs veh, RFX7 / RFU, GTPBP10 / Fold change vs veh, GTPBP10 / RFU, CNEP1R1 / Fold change vs veh, CNEP1R1 / RFU, BIVM-ERCC5 /// ERCC5 / Fold change vs veh, BIVM-ERCC5 /// ERCC5 / RFU, ILF3 / Fold change vs veh, ILF3 / RFU 11762660_at / Fold change /veh 11762660_at / RFU VCAN (11757783_s_at) / Fold change /veh VCAN (11757783_s_at) / RFU DDX43 (11728927_at) / Fold change /veh DDX43 (11728927_at) / RFU KRT8 (11758188_x_at) / Fold change /veh KRT8 (11758188_x_at) / RFU NKD1 (11759106_at) / Fold change /veh NKD1 (11759106_at) / RFU SRD5A1 (11742802_a_at) / Fold change /veh SRD5A1 (11742802_a_at) / RFU TPSAB1 /// TPSB2 (11721975_s_at) / Fold change /veh TPSAB1 /// TPSB2 (11721975_s_at) / RFU GSTM3 (11746129_a_at) / Fold change /veh GSTM3 (11746129_a_at) / RFU IL23R (11737362_x_at) / Fold change /veh IL23R (11737362_x_at) / RFU TMEM51 (11727254_a_at) / Fold change /veh TMEM51 (11727254_a_at) / RFU PIWIL2 (11732686_x_at) / Fold change /veh PIWIL2 (11732686_x_at) / RFU ORM1 (11744905_x_at) / Fold change /veh ORM1 (11744905_x_at) / RFU CCDC152 (11743942_at) / Fold change /veh CCDC152 (11743942_at) / RFU ECM1 (11717891_a_at) / Fold change /veh ECM1 (11717891_a_at) / RFU IL23R (11748794_a_at) / Fold change /veh IL23R (11748794_a_at) / RFU TNFAIP8L3 (11732012_x_at) / Fold change /veh TNFAIP8L3 (11732012_x_at) / RFU MBOAT4 (11741988_at) / Fold change /veh MBOAT4 (11741988_at) / RFU 11764193_at / Fold change /veh 11764193_at / RFU TMEM53 (11763286_at) / Fold change /veh TMEM53 (11763286_at) / RFU MAGEB2 (11727129_at) / Fold change /veh MAGEB2 (11727129_at) / RFU TMEM200A (11744735_a_at) / Fold change /veh TMEM200A (11744735_a_at) / RFU CCDC152 (11751479_a_at) / Fold change /veh CCDC152 (11751479_a_at) / RFU FAM211A (11726209_a_at) / Fold change /veh FAM211A (11726209_a_at) / RFU RGS16 (11746705_a_at) / Fold change /veh RGS16 (11746705_a_at) / RFU VCAN (11755009_s_at) / Fold change /veh VCAN (11755009_s_at) / RFU RHOB (11743442_s_at) / Fold change /veh RHOB (11743442_s_at) / RFU RGS16 (11720943_a_at) / Fold change /veh RGS16 (11720943_a_at) / RFU RGS16 (11720944_at) / Fold change /veh RGS16 (11720944_at) / RFU, VPS4B / Fold change vs veh, VPS4B / RFU, CREB1 / Fold change vs veh, CREB1 / RFU, DNAJC13 / Fold change vs veh, DNAJC13 / RFU, GNAQ / Fold change vs veh, GNAQ / RFU, CDK5R1 / Fold change vs veh, CDK5R1 / RFU, ZRANB3 / Fold change vs veh, ZRANB3 / RFU, CUL4A / Fold change vs veh, CUL4A / RFU, CCNY / Fold change vs veh, CCNY / RFU, UFL1 / Fold change vs veh, UFL1 / RFU, COG3 / Fold change vs veh, COG3 / RFU, DIAPH2 / Fold change vs veh, DIAPH2 / RFU, SKA2 / Fold change vs veh, SKA2 / RFU, AFF3 / Fold change vs veh, AFF3 / RFU, LMF1 / Fold change vs veh, LMF1 / RFU, IPO11 / Fold change vs veh, IPO11 / RFU, DFFB / Fold change vs veh, DFFB / RFU, FOXP1 / Fold change vs veh, FOXP1 / RFU, CARD8 / Fold change vs veh, CARD8 / RFU, STRN3 / Fold change vs veh, STRN3 / RFU, ADK / Fold change vs veh, ADK / RFU, RASSF2 / Fold change vs veh, RASSF2 / RFU, WIPF1 / Fold change vs veh, WIPF1 / RFU, LARP1B / Fold change vs veh, LARP1B / RFU, RASA1 / Fold change vs veh, RASA1 / RFU, RB1 / Fold change vs veh, RB1 / RFU, PPFIA1 / Fold change vs veh, PPFIA1 / RFU, MAT2A / Fold change vs veh, MAT2A / RFU, CCT5 / Fold change vs veh, CCT5 / RFU, WDR92 / Fold change vs veh, WDR92 / RFU, CUX1 / Fold change vs veh, CUX1 / RFU, TTC7A / Fold change vs veh, TTC7A / RFU, TMEM135 / Fold change vs veh, TMEM135 / RFU, DEPTOR / Fold change vs veh, DEPTOR / RFU, CPM / Fold change vs veh, CPM / RFU, DNAJB6 / Fold change vs veh, DNAJB6 / RFU, CACNA2D3 / Fold change vs veh, CACNA2D3 / RFU, DTX4 / Fold change vs veh, DTX4 / RFU, TFCP2 / Fold change vs veh, TFCP2 / RFU, GMCL1 /// GMCL1P1 / Fold change vs veh, GMCL1 /// GMCL1P1 / RFU, AEBP2 / Fold change vs veh, AEBP2 / RFU, SNHG1 /// SNORD22 /// SNORD25 /// SNORD26 /// SNORD27 /// SNORD28 /// SNORD29 /// SNORD31 / Fold change vs veh, SNHG1 /// SNORD22 /// SNORD25 /// SNORD26 /// SNORD27 /// SNORD28 /// SNORD29 /// SNORD31 / Fold change (Aza/veh), C12orf56 (ProbeSet 11735607_a_at) / Fold change (ACY-1035/veh), C12orf56 (ProbeSet 11735607_a_at) / Fold change (Aza/veh), FGFR1OP (ProbeSet 11751329_s_at) / Fold change (ACY-1035/veh), FGFR1OP (ProbeSet 11751329_s_at) / Fold change (Aza/veh), VPS36 (ProbeSet 11739960_a_at) / Fold change (ACY-1035/veh), VPS36 (ProbeSet 11739960_a_at) / RFU SYPL1 (11715823_x_at) / Fold change /veh SYPL1 (11715823_x_at) / RFU IGFBP7 (11715501_s_at) / Fold change /veh IGFBP7 (11715501_s_at) / RFU REEP3 (11722064_at) / Fold change /veh REEP3 (11722064_at) / RFU IGLL1 (11728026_x_at) / Fold change /veh IGLL1 (11728026_x_at): dose or concentration left out as unconfirmed
# Conditions: ProbeSet 11757268_x_at; LIST B
compound,measurement,value
Nc1ncn([C@@H]2O[C@H](CO)[C@@H](O)[C@H]2O)c(=O)n1 [azacitidine],"RFU, HNRNPA1",4469.53 RFU
